Experimental findings from EP4678638A1, “NEW E3 UBIQUITIN LIGASE LIGAND, PROTEIN DEGRADATION AGENT AND USE THEREOF” (priority 2023, dated 2024) are described below.

For test [1], the system named is H1975. Description: CCK-8 proliferation, NCI-H1975 (H1975). In kind it is cell-based, Human. As to conditions: Homo sapiens, NCI-H1975; CCK-8; 96 hours; read-out: Inhibitory activity (IC50) on tumor cell proliferation, H1975. In a few lines:
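Tumor cells were cultured at 37°C with 5% CO2, seeded, and after 24h treated with compounds at 10 concentrations starting at 10µM (5-fold serial dilutions).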

The test system of test [2] is EGFR. Description: Western blot degradation of EGFR (H1975 Cell). Type of test: cell-based, Human. The settings on record: Table D2. Here is the method:
Conventional Western blot assay was performed to evaluate the effects of the compounds of the present disclosure on the expression of target proteins in cells.
(1) Cell Seeding and Protein Harvesting: The selected cells were processed according to the cell seeding procedure and protein harvesting procedure in Table III-2. Table III-2 Cell Seeding and Protein Harvesting Procedures
(2) To the collected supernatant, 5X SDS sample loading buffer was added, followed by denaturation at 95°C for 5 minutes. The denatured samples were then separated by SDS-PAGE electrophoresis on a polyacrylamide gel. Proteins were transferred to a nitrocellulose membrane (0.45 µm NC membrane), blocked with blocking buffer at room temperature for 1 hour, and subjected to antibody incubation and development procedures according to the antibody manufacturer's instructions (Cell Signaling Technology).
Half-Maximal Degradation Concentration value (the drug concentration required for degrading proteins by 50%, abbreviated as DC50) reads method: comparing the grayscale values of Western blot bands from drug-treated samples with those from blank DMSO-treated controls, and identifying the drug concentration range at which the grayscale value is half that of the DMSO-treated control bands.
DC50 values can be calculated using ImageJ software to measure grayscale values of Western blot bands from drug-treated samples. The concentration-response curve is fitted to estimate the drug concentration corresponding to half the grayscale value.
Target protein remaining (%) refers to the percentage of target protein remaining in hPBMC cells after treatment with protein degrader compounds.
Calculation method for target protein remaining (%): Use ImageJ software to measure grayscale values of Western blot bands from drug (protein degrader)-treated samples. The grayscale value of drug-treated bands is divided by that of internal control protein bands, and the resulting quotient is normalized to obtain the relative percentage of remaining target protein after protein degrader treatment.
Target protein degradation rate (%) = 100% - target protein remaining (%).

The structures appear in SMILES notation.

For `O=C1CCN(c2ccc(CN3CCN(c4ccc(-c5cc(F)c6c(c5)C(=O)N(C(C(=O)Nc5nccs5)c5ncn7c5CCC7)C6)cc4)CC3)cn2)C(=O)N1` (centres unmarked) [GT-06166, 2-(6,7-dihydro-5H-pyrrolo[1,2-c]imidazol-1-yl)-2-(6-(4-(4-((6-(2,4-dioxotetrahydropyrimidin-1(2H)-yl)pyridin-3-yl)methyl)piperazin-1-yl)phenyl)-4-fluoro-1-oxoisoindolin-2-yl)-N-(thiazol-2-yl)acetamide], the IC50 in test [1] is 1 to 10 nM. Moreover, in test [2], the “Degradation of substrate protein EGFR (substrate protein remaining %)” value (from here on “Degradation … (substrate protein remaining %)”) was “A (A is defined as 0% ≤ substrate protein remaining % ≤ 80%)”.
Take `O=C1CCN(c2ccc(CN3C[C@H]4C[C@@H]3CN4c3ccc(-c4cc(F)c5c(c4)C(=O)N(C(C(=O)Nc4nccs4)c4ncn6c4CCC6)C5)cc3)cc2)C(=O)N1` (stereo partly drawn) [GT-06177, 2-(6,7-dihydro-5H-pyrrolo[1,2-c]imidazol-1-yl)-2-(6-(4-((1R,4R)-5-(4-(2,4-dioxotetrahydropyrimidin-1(2H)-yl)benzyl)-2,5-diazabicyclo[2.2.1]heptan-2-yl)phenyl)-4-fluoro-1-oxoisoindolin-2-yl)-N-(thiazol-2-yl)acetamide]: the IC50 in test [1] is 1 to 10 nM. Also, the “Degradation … (substrate protein remaining %)” value in test [2] is on record as “A (A is defined as 0% ≤ substrate protein remaining % ≤ 80%)”.
For the molecule `O=C1CCN(c2cccc(CN3C[C@H]4C[C@@H]3CN4c3ccc(-c4cc(F)c5c(c4)C(=O)N(C(C(=O)Nc4nccs4)c4ncn6c4CCC6)C5)cc3)c2)C(=O)N1` (stereo partly drawn) [GT-06178, 2-(6,7-dihydro-5H-pyrrolo[1,2-c]imidazol-1-yl)-2-(6-(4-((1R,4R)-5-(3-(2,4-dioxotetrahydropyrimidin-1(2H)-yl)benzyl)-2,5-diazabicyclo[2.2.1]heptan-2-yl)phenyl)-4-fluoro-1-oxoisoindolin-2-yl)-N-(thiazol-2-yl)acetamide], the IC50 in test [1] lay in the range of 1 to 10 nM. The “Degradation … (substrate protein remaining %)” value in test [2] was “A (A is defined as 0% ≤ substrate protein remaining % ≤ 80%)”.
For `O=C1CCN(c2ccc(CN3CCN(c4ccc(-c5cc(F)c6c(c5)C(=O)N(C(C(=O)Nc5nccs5)c5ncn7c5CCC7)C6)cc4)CC3)nc2)C(=O)N1` (centres unmarked) [GT-06229, 2-(6,7-dihydro-5H-pyrrolo[1,2-c]imidazol-1-yl)-2-(6-(4-(4-((5-(2,4-dioxotetrahydropyrimidin-1(2H)-yl)pyridin-2-yl)methyl)piperazin-1-yl)phenyl)-4-fluoro-1-oxoisoindolin-2-yl)-N-(thiazol-2-yl)acetamide], the IC50 in test [1] fell in the range of 1 to 10 nM. For the same molecule, the “Degradation … (substrate protein remaining %)” value in test [2] is given as “A (A is defined as 0% ≤ substrate protein remaining % ≤ 80%)”.
Consider `O=C1CCC(c2ccc(CN3CCN(C4CCN(c5ccc(-c6cc(F)c7c(c6)C(=O)N(C(C(=O)Nc6nccs6)c6ncn8c6CCC8)C7)cc5)CC4)CC3)cc2)C(=O)N1` (centres unmarked) [GT-06243, 2-(6,7-dihydro-5H-pyrrolo[1,2-c]imidazol-1-yl)-2-(6-(4-(4-(4-(4-(2,6-dioxopiperidin-3-yl)benzyl)piperazin-1-yl)piperidin-1-yl)phenyl)-4-fluoro-1-oxoisoindolin-2-yl)-N-(thiazol-2-yl)acetamide], for which the IC50 in test [1] lay in the range of 1 to 10 nM. In test [2], the “Degradation … (substrate protein remaining %)” value is “A (A is defined as 0% ≤ substrate protein remaining % ≤ 80%)”.
The corresponding values for `O=C1CCN(c2ccc(CN3CCN(C4CCN(c5ccc(-c6cc(F)c7c(c6)C(=O)N(C(C(=O)Nc6nccs6)c6ncn8c6CCC8)C7)cc5)CC4)CC3)cc2)C(=O)N1` (centres unmarked) [GT-06244, 2-(6,7-dihydro-5H-pyrrolo[1,2-c]imidazol-1-yl)-2-(6-(4-(4-(4-(4-(2,4-dioxotetrahydropyrimidin-1(2H)-yl)benzyl)piperazin-1-yl)piperidin-1-yl)phenyl)-4-fluoro-1-oxoisoindolin-2-yl)-N-(thiazol-2-yl)acetamide] are 1 to 10 nM and “A (A is defined as 0% ≤ substrate protein remaining % ≤ 80%)”.
Regarding `O=C1CCN(c2cccc(CN3CCN(C4CCN(c5ccc(-c6cc(F)c7c(c6)C(=O)N(C(C(=O)Nc6nccs6)c6ncn8c6CCC8)C7)cc5)CC4)CC3)c2)C(=O)N1` (centres unmarked) [GT-06245, 2-(6,7-dihydro-5H-pyrrolo[1,2-c]imidazol-1-yl)-2-(6-(4-(4-(4-(3-(2,4-dioxotetrahydropyrimidin-1(2H)-yl)benzyl)piperazin-1-yl)piperidin-1-yl)phenyl)-4-fluoro-1-oxoisoindolin-2-yl)-N-(thiazol-2-yl)acetamide], in test [1], the IC50 is 1 to 10 nM. Further, in test [2], the “Degradation … (substrate protein remaining %)” value was “A (A is defined as 0% ≤ substrate protein remaining % ≤ 80%)”.
The corresponding values for `O=C1CCN(c2ccc(CN3CCN(C4CCN(c5ccc(-c6cc(F)c7c(c6)C(=O)N(C(C(=O)Nc6nccs6)c6ncn8c6CCC8)C7)cc5)CC4)CC3)nc2)C(=O)N1` (centres unmarked) [GT-06246, 2-(6,7-dihydro-5H-pyrrolo[1,2-c]imidazol-1-yl)-2-(6-(4-(4-(4-((5-(2,4-dioxotetrahydropyrimidin-1(2H)-yl)pyridin-2-yl)methyl)piperazin-1-yl)piperidin-1-yl)phenyl)-4-fluoro-1-oxoisoindolin-2-yl)-N-(thiazol-2-yl)acetamide] are 1 to 10 nM and “A (A is defined as 0% ≤ substrate protein remaining % ≤ 80%)”.
In the same order, the values of `O=C1CCC(c2ccc(CN3CCN(C4CCN(c5ccc(-c6cc(F)c7c(c6)C(=O)N(C(C(=O)Nc6nccs6)c6ncn8c6CCC8)C7)cc5)CC4(F)F)CC3)cc2)C(=O)N1` (centres unmarked) [GT-06317, 2-(6,7-dihydro-5H-pyrrolo[1,2-c]imidazol-1-yl)-2-(6-(4-(4-(4-(4-(2,6-dioxopiperidin-3-yl)benzyl)piperazin-1-yl)-3,3-difluoropiperidin-1-yl)phenyl)-4-fluoro-1-oxoisoindolin-2-yl)-N-(thiazol-2-yl)acetamide] are 10 to 50 nM and “A (A is defined as 0% ≤ substrate protein remaining % ≤ 80%)”.
For `O=C1CCN(c2ccc(CN3CCN(C4CCN(c5ccc(-c6cc(F)c7c(c6)C(=O)N(C(C(=O)Nc6nccs6)c6ncn8c6CCC8)C7)cc5)CC4(F)F)CC3)cc2)C(=O)N1` (centres unmarked) [GT-06318, 2-(6,7-dihydro-5H-pyrrolo[1,2-c]imidazol-1-yl)-2-(6-(4-(4-(4-(4-(2,4-dioxotetrahydropyrimidin-1(2H)-yl)benzyl)piperazin-1-yl)-3,3-difluoropiperidin-1-yl)phenyl)-4-fluoro-1-oxoisoindolin-2-yl)-N-(thiazol-2-yl)acetamide], in test [1], the IC50 was 10 to 50 nM. Besides, the “Degradation … (substrate protein remaining %)” value in test [2] is on record as “A (A is defined as 0% ≤ substrate protein remaining % ≤ 80%)”.
The corresponding values for `O=C1CCN(c2ccc(CN3CCN(C4CCN(c5ccc(-c6cc(F)c7c(c6)C(=O)N(C(C(=O)Nc6nccs6)c6ncn8c6CCC8)C7)cc5)CC4(F)F)CC3)nc2)C(=O)N1` (centres unmarked) [GT-06319, 2-(6,7-dihydro-5H-pyrrolo[1,2-c]imidazol-1-yl)-2-(6-(4-(4-(4-((5-(2,4-dioxotetrahydropyrimidin-1(2H)-yl)pyridin-2-yl)methyl)piperazin-1-yl)-3,3-difluoropiperidin-1-yl)phenyl)-4-fluoro-1-oxoisoindolin-2-yl)-N-(thiazol-2-yl)acetamide] are 1 to 10 nM and “A (A is defined as 0% ≤ substrate protein remaining % ≤ 80%)”.
Regarding `O=C1CCC(Nc2cccc(CN3CCN(C4CCN(c5ccc(-c6cc(F)c7c(c6)C(=O)N(C(C(=O)Nc6nccs6)c6ncn8c6CCC8)C7)cc5)CC4(F)F)CC3)c2)C(=O)N1` (centres unmarked) [GT-06321, 2-(6,7-dihydro-5H-pyrrolo[1,2-c]imidazol-1-yl)-2-(6-(4-(4-(4-(3-((2,6-dioxopiperidin-3-yl)amino)benzyl)piperazin-1-yl)-3,3-difluoropiperidin-1-yl)phenyl)-4-fluoro-1-oxoisoindolin-2-yl)-N-(thiazol-2-yl)acetamide], the IC50 in test [1] fell in the range of 10 to 50 nM. In test [2], the “Degradation … (substrate protein remaining %)” value is “A (A is defined as 0% ≤ substrate protein remaining % ≤ 80%)”.
As for `O=C1CCC(c2ccc(CN3CCC(N4CCN(c5ccc(-c6cc(F)c7c(c6)C(=O)N(C(C(=O)Nc6nccs6)c6ncn8c6CCC8)C7)cc5)CC4)CC3)cc2)C(=O)N1` (centres unmarked) [GT-06326, 2-(6,7-dihydro-5H-pyrrolo[1,2-c]imidazol-1-yl)-2-(6-(4-(4-(1-(4-(2,6-dioxopiperidin-3-yl)benzyl)piperidin-4-yl)piperazin-1-yl)phenyl)-4-fluoro-1-oxoisoindolin-2-yl)-N-(thiazol-2-yl)acetamide], in test [1], the IC50 lay in the range of 10 to 50 nM. Further, in test [2], the “Degradation … (substrate protein remaining %)” value is listed as “A (A is defined as 0% ≤ substrate protein remaining % ≤ 80%)”.
